From ChEMBL document CHEMBL1154622, “Structure-guided design of potent and selective pyrimidylpyrrole inhibitors of extracellular signal-regulated kinase (ERK) using conformational control” (J Med Chem, 2009)
≈ marks a conversion by molar mass, not a printed value.

Experiments:
[1] = target: Ribosomal protein S6 kinase alpha-4 (Homo sapiens) (UniProt O75676); assay: Inhibition of MSK2 at 1 uM
[2] = Inhibition of PKA
[3] = target: Macrophage-stimulating protein receptor (Homo sapiens) (UniProt Q04912); assay: Inhibition of RON at 1 uM
[4] = target: Protein kinase C beta type (Homo sapiens) (UniProt P05771); assay: Inhibition of PKCbeta1 at 1 uM
[5] = target: Serine/threonine-protein kinase TBK1 (Homo sapiens) (UniProt Q9UHD2); assay: Inhibition of TBK1 at 1 uM
[6] = target: Vascular endothelial growth factor receptor 3 (Homo sapiens) (UniProt P35916); assay: Inhibition of FLT-4 at 1 uM
Chain of Vascular endothelial growth factor receptor 3 (Homo sapiens) (P35916 whole entry): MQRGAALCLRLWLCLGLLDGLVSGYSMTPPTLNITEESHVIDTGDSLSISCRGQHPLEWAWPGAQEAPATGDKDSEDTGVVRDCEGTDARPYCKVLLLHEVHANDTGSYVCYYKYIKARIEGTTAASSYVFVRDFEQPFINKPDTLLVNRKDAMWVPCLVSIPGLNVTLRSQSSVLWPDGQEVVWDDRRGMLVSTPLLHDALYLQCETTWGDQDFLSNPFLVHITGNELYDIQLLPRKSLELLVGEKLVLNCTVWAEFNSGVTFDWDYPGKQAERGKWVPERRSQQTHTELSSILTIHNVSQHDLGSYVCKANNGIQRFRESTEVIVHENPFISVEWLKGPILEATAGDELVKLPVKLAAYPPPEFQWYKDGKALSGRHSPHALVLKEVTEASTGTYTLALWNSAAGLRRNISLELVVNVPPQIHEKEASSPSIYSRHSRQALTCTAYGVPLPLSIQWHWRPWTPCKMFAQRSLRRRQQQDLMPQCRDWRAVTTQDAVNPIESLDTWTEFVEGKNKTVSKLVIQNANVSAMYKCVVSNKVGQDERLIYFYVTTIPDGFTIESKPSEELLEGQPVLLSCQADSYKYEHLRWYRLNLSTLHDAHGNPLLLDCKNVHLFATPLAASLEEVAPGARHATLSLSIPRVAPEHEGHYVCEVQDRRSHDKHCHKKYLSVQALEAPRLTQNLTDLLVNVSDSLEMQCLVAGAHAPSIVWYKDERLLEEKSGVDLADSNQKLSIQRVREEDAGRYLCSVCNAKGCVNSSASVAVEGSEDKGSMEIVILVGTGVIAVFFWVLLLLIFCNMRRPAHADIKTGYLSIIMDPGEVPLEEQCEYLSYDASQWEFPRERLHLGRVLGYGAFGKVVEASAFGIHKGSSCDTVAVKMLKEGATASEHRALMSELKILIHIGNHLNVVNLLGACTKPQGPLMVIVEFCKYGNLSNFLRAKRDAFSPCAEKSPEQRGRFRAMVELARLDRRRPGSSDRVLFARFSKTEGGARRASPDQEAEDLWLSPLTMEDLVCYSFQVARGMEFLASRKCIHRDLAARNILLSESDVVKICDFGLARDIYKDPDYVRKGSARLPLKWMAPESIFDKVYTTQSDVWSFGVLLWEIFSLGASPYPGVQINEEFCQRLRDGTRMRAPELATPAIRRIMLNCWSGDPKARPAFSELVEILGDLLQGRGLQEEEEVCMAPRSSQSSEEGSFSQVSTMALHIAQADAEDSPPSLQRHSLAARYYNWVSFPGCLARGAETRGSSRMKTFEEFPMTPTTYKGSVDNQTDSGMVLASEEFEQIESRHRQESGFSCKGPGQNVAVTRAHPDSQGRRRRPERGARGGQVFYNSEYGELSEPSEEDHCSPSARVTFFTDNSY

HT-29 = assay: Antiproliferative activity against human HT-29 cells; assay type: functional, cell-based
[7] = Solubility in pH 7.4 buffer; assay type: physicochemical
[8] = target: Serine/threonine-protein kinase D3 (Homo sapiens) (UniProt O94806); assay: Inhibition of PRKD3 at 1 uM
Chain of Serine/threonine-protein kinase D3 (Homo sapiens) (O94806 whole entry, the tested form may be a part): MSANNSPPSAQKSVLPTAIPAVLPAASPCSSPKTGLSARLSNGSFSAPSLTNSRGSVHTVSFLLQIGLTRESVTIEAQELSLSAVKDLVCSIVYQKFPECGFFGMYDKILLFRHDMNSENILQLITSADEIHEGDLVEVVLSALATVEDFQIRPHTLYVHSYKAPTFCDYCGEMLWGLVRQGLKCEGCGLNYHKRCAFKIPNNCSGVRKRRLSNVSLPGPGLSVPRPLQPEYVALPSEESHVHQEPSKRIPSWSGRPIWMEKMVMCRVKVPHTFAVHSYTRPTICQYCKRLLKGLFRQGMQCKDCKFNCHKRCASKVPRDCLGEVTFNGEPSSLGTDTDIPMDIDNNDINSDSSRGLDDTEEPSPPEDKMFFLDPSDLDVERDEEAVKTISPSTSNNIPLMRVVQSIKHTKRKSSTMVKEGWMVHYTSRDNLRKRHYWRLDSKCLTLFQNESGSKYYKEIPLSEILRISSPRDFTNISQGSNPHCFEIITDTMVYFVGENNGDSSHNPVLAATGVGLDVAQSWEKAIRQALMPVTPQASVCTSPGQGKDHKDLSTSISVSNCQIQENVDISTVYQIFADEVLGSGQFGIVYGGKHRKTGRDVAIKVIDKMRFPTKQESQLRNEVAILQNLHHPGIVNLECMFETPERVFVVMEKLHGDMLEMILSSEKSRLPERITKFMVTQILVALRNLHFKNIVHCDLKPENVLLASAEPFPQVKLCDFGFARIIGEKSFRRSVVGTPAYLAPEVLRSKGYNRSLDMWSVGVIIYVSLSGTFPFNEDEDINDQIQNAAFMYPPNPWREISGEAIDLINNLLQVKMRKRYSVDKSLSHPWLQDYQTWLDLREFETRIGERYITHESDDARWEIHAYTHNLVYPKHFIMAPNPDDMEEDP

[9] = target: PAS domain-containing serine/threonine-protein kinase (Homo sapiens) (UniProt Q96RG2); assay: Inhibition of PASK at 1 uM
[10] = Plasma concentration in mouse at 33 mg/kg, po after 4 hrs; assay type: ADME, organism-based; set-up: dose 33 mg/kg, route oral
[11] = target: Mitogen-activated protein kinase kinase kinase 14 (Homo sapiens, UniProt Q99558); assay: Inhibition of NIK
[12] = Plasma concentration in mouse at 33 mg/kg, po after 8 hrs; assay type: ADME, organism-based; set-up: dose 33 mg/kg, route oral
[13] = target: Dual specificity mitogen-activated protein kinase kinase 4 (Homo sapiens) (UniProt P45985); assay: Inhibition of MKK4 at 2 uM
[14] = target: Tyrosine-protein kinase JAK2 (Homo sapiens, UniProt O60674); assay: Inhibition of JAK2
Chain of Tyrosine-protein kinase JAK2 (O60674 whole entry): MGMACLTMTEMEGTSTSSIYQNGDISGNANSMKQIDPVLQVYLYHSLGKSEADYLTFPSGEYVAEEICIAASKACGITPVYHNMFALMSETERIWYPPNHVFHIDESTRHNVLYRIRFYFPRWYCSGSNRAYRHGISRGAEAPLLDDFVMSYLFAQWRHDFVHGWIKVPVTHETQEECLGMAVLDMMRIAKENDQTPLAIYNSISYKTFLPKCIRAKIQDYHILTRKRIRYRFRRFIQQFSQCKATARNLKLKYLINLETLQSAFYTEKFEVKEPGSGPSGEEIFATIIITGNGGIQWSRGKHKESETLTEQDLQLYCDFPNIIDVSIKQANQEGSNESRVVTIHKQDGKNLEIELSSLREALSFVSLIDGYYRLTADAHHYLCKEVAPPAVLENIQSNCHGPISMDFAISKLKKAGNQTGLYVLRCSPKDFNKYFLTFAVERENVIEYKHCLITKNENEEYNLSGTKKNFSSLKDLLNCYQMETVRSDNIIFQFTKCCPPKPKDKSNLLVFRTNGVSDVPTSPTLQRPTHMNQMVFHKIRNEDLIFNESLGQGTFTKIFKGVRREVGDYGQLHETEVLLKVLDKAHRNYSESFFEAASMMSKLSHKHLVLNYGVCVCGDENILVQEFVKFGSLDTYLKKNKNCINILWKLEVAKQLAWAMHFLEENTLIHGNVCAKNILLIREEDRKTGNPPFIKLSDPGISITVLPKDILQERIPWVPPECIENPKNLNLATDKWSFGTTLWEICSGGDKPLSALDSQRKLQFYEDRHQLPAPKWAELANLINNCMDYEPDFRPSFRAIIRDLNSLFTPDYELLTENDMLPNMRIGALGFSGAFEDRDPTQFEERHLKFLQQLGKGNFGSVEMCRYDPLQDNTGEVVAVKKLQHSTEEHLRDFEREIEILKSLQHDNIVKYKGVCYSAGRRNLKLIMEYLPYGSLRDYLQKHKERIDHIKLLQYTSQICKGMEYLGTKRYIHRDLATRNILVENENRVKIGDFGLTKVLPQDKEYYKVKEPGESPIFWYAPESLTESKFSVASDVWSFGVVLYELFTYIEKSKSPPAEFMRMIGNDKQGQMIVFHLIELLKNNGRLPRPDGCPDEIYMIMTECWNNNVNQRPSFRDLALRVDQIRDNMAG

[15] = target: Ribosomal protein S6 kinase alpha-6 (Homo sapiens) (UniProt Q9UK32); assay: Inhibition of RSK4 at 1 uM
[16] = target: Ephrin type-B receptor 4 (Homo sapiens) (UniProt P54760); assay: Inhibition of EPH-B4 at 1 uM
[17] = target: Ribosomal protein S6 kinase alpha-1 (Homo sapiens) (UniProt Q15418); assay: Inhibition of RSK1 at 1 uM
[18] = Plasma concentration in rat at 10 mg/kg, po after 4 hrs; assay type: ADME, organism-based; set-up: dose 10 mg/kg, route oral
[19] = target: Serine/threonine-protein kinase TBK1 (Homo sapiens, UniProt Q9UHD2); assay: Inhibition of NAK
[20] = target: RAC-gamma serine/threonine-protein kinase (Homo sapiens, UniProt Q9Y243); assay: Inhibition of AKT3 at 1 uM
Chain of RAC-gamma serine/threonine-protein kinase (Q9Y243 whole entry): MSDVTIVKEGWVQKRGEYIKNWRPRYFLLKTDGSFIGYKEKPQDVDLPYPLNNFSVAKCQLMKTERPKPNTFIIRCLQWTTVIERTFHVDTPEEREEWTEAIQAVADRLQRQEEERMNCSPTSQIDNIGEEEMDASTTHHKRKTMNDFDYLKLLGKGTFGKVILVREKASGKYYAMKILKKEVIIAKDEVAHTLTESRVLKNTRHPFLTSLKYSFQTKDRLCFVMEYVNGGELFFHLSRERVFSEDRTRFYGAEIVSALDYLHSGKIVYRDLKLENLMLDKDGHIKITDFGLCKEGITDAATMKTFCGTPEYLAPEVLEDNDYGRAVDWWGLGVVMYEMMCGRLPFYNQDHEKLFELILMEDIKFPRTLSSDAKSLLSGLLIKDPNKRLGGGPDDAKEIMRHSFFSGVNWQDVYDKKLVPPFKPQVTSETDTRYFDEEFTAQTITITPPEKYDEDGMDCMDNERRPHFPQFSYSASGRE

[21] = target: Interleukin-1 receptor-associated kinase 4 (Homo sapiens, UniProt Q9NWZ3); assay: Inhibition of IRAK4
[22] = Half life in rat at 3 mg/kg, iv; assay type: ADME, organism-based; set-up: dose 3 mg/kg, route intravenous; settings: in vivo
[23] = target: Cyclin-dependent kinase 1 (Homo sapiens) (UniProt P06493); assay: Inhibition of CDK1 at 1 uM
[24] = target: RAF proto-oncogene serine/threonine-protein kinase (Homo sapiens) (UniProt P04049); assay: Inhibition of cRAF at 2 uM
[25] = target: Mitogen-activated protein kinase 8 (Homo sapiens) (UniProt P45983); assay: Inhibition of JNK1 at 2 uM
[26] = target: Serine/threonine-protein kinase PLK1 (Homo sapiens, UniProt P53350); assay: Inhibition of PLK1
[27] = target: Calcium/calmodulin-dependent protein kinase type II subunit alpha (Homo sapiens) (UniProt Q9UQM7); assay: Inhibition of CAMK2 at 2 uM
[28] = target: Serine/threonine-protein kinase Sgk1 (Homo sapiens) (UniProt O00141); assay: Inhibition of SGK1 at 1 uM
[29] = target: Serine/threonine-protein kinase Sgk1 (Homo sapiens, UniProt O00141); assay: Inhibition of SGK1
[30] = target: Inhibitor of nuclear factor kappa-B kinase subunit alpha (Homo sapiens) (UniProt O15111); settings: 2 uM
Description: Inhibition of IKKalpha at 2 uM

[31] = target: Cyclin-dependent kinase 2 (Homo sapiens, UniProt P24941)
[32] = Half life in mouse at 5 mg/kg, iv; assay type: ADME, organism-based; set-up: dose 5 mg/kg, route intravenous; settings: in vivo
[33] = target: Inhibitor of nuclear factor kappa-B kinase subunit beta (Homo sapiens) (UniProt O14920); settings: 2 uM
Description: Inhibition of IKK-beta at 2 uM

[34] = target: Fibroblast growth factor receptor 2 (Homo sapiens) (UniProt P21802); assay: Inhibition of FGFR2 at 1 uM
[35] = target: Dual specificity mitogen-activated protein kinase kinase 1 (Homo sapiens, UniProt Q02750); assay: Inhibition of MEK1
[36] = target: MAP kinase-activated protein kinase 3 (Homo sapiens) (UniProt Q16644); assay: Inhibition of MAPKAPK3 at 1 uM
[37] = Oral bioavailability in rat at 10 mg/kg; assay type: ADME, organism-based; settings: in vivo
[38] = Inhibition of GSK3
[39] = target: Serine/threonine-protein kinase D2 (Homo sapiens) (UniProt Q9BZL6); assay: Inhibition of PRKD2 at 1 uM
[40] = target: Cyclin-dependent kinase 5 (Homo sapiens) (UniProt Q00535); assay: Inhibition of CDK5 at 1 uM
[41] = target: Serine/threonine-protein kinase MARK2 (Homo sapiens) (UniProt Q7KZI7); assay: Inhibition of PAR-1Balpha at 1 uM
[42] = target: Hepatocyte growth factor receptor (Homo sapiens, UniProt P08581); assay: Inhibition of MET
[43] = target: Tyrosine-protein kinase Blk (Homo sapiens) (UniProt P51451); assay: Inhibition of BLK at 2 uM
Chain of Tyrosine-protein kinase Blk (Homo sapiens) (P51451 2-505 limits assumed): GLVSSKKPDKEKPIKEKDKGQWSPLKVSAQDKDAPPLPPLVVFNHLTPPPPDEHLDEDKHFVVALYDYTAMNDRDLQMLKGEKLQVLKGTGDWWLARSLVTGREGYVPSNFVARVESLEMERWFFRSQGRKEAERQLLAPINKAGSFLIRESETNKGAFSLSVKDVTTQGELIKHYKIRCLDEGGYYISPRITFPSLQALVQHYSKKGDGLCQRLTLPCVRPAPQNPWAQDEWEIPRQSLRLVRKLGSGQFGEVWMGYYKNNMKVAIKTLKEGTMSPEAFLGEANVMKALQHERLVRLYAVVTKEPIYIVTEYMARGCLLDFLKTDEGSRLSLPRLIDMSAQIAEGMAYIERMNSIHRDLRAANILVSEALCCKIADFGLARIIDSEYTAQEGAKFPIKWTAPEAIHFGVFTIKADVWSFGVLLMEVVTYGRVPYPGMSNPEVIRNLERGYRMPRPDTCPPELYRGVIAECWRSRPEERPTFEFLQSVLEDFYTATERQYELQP

[44] = Volume of distribution at steady state in rat at 3 mg/kg, iv; assay type: ADME, organism-based; set-up: dose 3 mg/kg, route intravenous; settings: in vivo, read-out: Vdss
[45] = target: Serine/threonine-protein kinase Nek2 (Homo sapiens) (UniProt P51955); assay: Inhibition of NEK2 at 1 uM
Chain of Serine/threonine-protein kinase Nek2 (Homo sapiens) (P51955 whole entry): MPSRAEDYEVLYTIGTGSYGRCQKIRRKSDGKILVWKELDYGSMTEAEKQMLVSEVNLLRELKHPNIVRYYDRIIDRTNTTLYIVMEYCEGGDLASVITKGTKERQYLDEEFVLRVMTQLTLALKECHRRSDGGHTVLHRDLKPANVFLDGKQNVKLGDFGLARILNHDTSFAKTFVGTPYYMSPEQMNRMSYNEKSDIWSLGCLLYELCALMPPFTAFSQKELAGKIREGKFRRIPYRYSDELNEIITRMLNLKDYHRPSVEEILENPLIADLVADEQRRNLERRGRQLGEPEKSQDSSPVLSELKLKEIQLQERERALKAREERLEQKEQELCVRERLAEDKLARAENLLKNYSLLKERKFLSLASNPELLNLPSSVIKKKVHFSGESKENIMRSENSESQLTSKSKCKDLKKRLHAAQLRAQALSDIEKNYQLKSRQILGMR

[46] = target: Mitogen-activated protein kinase 11 (Homo sapiens) (UniProt Q15759); assay: Inhibition of P38beta at 2 uM
[47] = target: Protein-tyrosine kinase 2-beta (Homo sapiens) (UniProt Q14289); assay: Inhibition of PYK2 at 1 uM
[48] = target: Proto-oncogene tyrosine-protein kinase Src (Homo sapiens, UniProt P12931); assay: Inhibition of SRC
[49] = target: Angiopoietin-1 receptor (Homo sapiens) (UniProt Q02763); assay: Inhibition of TIE2 at 1 uM
[50] = AUC (0 to 8 hrs) in rat at 3 mg/kg, iv; assay type: ADME, organism-based; set-up: time < 8 hr, dose 3 mg/kg, route intravenous; settings: plasma
[51] = target: Dual specificity tyrosine-phosphorylation-regulated kinase 1A (Homo sapiens) (UniProt Q13627); assay: Inhibition of DYRK1A at 1 uM
[52] = target: Serine/threonine-protein kinase pim-1 (Homo sapiens) (UniProt P11309); assay: Inhibition of PIM1 at 1 uM
[53] = target: Calcium/calmodulin-dependent protein kinase type IV (Homo sapiens) (UniProt Q16566); assay: Inhibition of CAMK4 at 2 uM

In the case of `Cc1cnc(Nc2ccc(F)cc2Cl)nc1-c1c[nH]c(C(=O)N[C@H](CO)c2cccc(Cl)c2)c1`, the inhibition [1] is reported as 6%, the Ki [2] is reported as > 4 µM and the inhibition [3] is reported as 1%. It also gave an inhibition [4] of 4%, an inhibition [5] of 3% and an inhibition [6] of 8%. It also gave an IC50 (HT-29) of 0.048 µM, a solubility [7] of 10 µM (≈ 5 µg/mL) and an inhibition [8] of 21%. For the same compound, the inhibition [9] was 19%, the concentration at 4 h [10] was 488 ng/mL and the Ki [11] was > 5 µM. The concentration at 8 h [12] was 122 ng/mL, the inhibition [13] was 69% and the Ki [14] was > 4 µM. For the same compound, the inhibition [15] was 11%, the inhibition [16] was 0% and the inhibition [17] was 4%. The concentration at 4 h [18] was 329 ng/mL, the Ki [19] was > 10 µM and the inhibition [20] was 0%. For the same compound, the Ki [21] was > 4 µM, the half-life [22] was 3.2 h and the inhibition [23] was 7%. For the same compound, the inhibition [24] was 3%, the inhibition [25] was 34% and the Ki [26] was > 4 µM. The inhibition [27] was 1%, the inhibition [28] was 15% and the Ki [29] was > 10 µM. The inhibition [30] was 0%, the Ki [31] was 0.852 µM and the half-life [32] was 1.6 h. For the same compound, the inhibition [33] was 8%, the inhibition [34] was 12% and the Ki [35] was > 4 µM. For the same compound, the inhibition [36] was 5%, the bioavailability [37] was 65% and the Ki [38] was 0.395 µM. It also gave an inhibition [39] of 50%, an inhibition [40] of 24% and an inhibition [41] of 5%. For the same compound, the Ki [42] was > 4 µM, the inhibition [43] was 7% and the Vd [44] was 4.9 L/kg. For the same compound, the inhibition [45] was 3%, the inhibition [46] was 25% and the inhibition [47] was 6%. The Ki [48] was > 4 µM, the inhibition [49] was 0% and the AUC(0-t) at 8 h [50] was 1600 ng·h/mL. For the same compound, the inhibition [51] was 3%, the inhibition [52] was 0% and the inhibition [53] was 0%.
